From patent publication US5595730A, “Lactate dehydrogenase inhibitors in cosmetic compositions” (priority 1996, dated 1997) come the findings set out here.

In data set [1] the test system is Normal human epidermal keratinocytes (NHEK). Briefly: Keratinocyte proliferation (DNA content, fluorometric). Type of data set: cell-based. Particulars: Table 8, single agent alone. Here is the method: Normal human epidermal keratinocytes (NHEK) derived from neonatal foreskin were used for all experiments. Media were purchased from Clonetics Corp., San Diego, Calif. Cell stocks frozen in passage 2 were grown in Keratinocyte Growth Medium (KGM) and passaged when 70-80% confluent. Cells were seeded in 96 well plates (Corning) at a density of 7500 cells/well in KGM. After 24 hours, cells were rinsed and dosed with test compounds in 200 μl of Keratinocyte Basal Medium (KBM). Plates were incubated for three days at 37° C., 5% CO2. Cell proliferation was estimated by assaying for DNA content by a fluorometric method described by Rago et al. (Analytical Biochemistry, 191:31-34, 1990). Medium was removed and cells were rinsed with phosphate buffered saline solution. 100 μl of sterile distilled water was added to each well and plates were frozen at -70° C. for one and a half hours. Plates were thawed for one hour at which time 100 μl of a 20 ug/ml solution of Bisbenzimide H33258 fluorochrome (Calbiochem Corp., La Jolla, Calif.) was added to each well. The fluorochrome was prepared just prior to use in 10 mM Tris, 1 mM EDTA, 4M NaCI, pH 7.4. Plates were read in a Millipore Cytofluor fluorescent plate reader to quantify DNA (excitation 360 nm, emission 460 nm). Percent increase over control was calculated from blank-corrected readings as (treated-untreated)/(untreated)*100. Each data point in the Tables below represents a mean of 5 or 6 replicates.
The procedure of Example 2 was repeated except that various co-active ingredients were tested for their ability to stimulate keratinocyte proliferation.
The procedure of Example 2 was repeated to test the effect of combination of an LDH inhibitor with another carboxylic acid on keratinocyte proliferation.

The subject of a further data set is procollagen 1. In words: Assay for collagen synthesis (secreted procollagen 1 immunoassay, fibroblasts). Particulars: actives 0.2 to 20 mM, serum-free medium, 48 hours.

Procedure for procollagen 1: Neonatal human dermal fibroblasts were purchased from Clonetics Corp., San Diego, Calif. All materials for cell culture were purchased from Life Technologies, N.Y. Cells were maintained in DMEM with 10% fetal bovine serum and used in passages 5-10. Confluent 96-well plates containing fibroblasts were treated with actives (0.2 to 20 mM) in serum-free medium for 48 hours. […] This was carried out in a BioDot SF apparatus according to the manufacturer's instructions (BioRad Labs, CA) and the blot was developed using a Vectastain Kit (PK6104, Vector Labs, CA) as per the manufacturer's directions. Color intensity was quantitated using an Ultroscan XL densitometer (Pharmacia LKB). Fold increase was calculated as (density of treated)/untreated.

Consider `O=C(O)CCC(=O)O` [Succinate], for which the “Keratinocyte proliferation, % Increase Over Control” value in data set [1] (0.156 mM) was determined as 48%; in data set [1] (0.313 mM), 48%; in data set [1] (0.625 mM) it was 39%; in data set [1] (1.25 mM) it was 51%; in data set [1] (2.5 mM) it was 58%; in data set [1] (5.0 mM), 0%. Also, in the data set with procollagen 1, the “Collagen Synthesis, Maximum fold over Control” value stood at 2.8 fold.
